Results as given in patent publication US9849170B2, “Microneedle coating composition and microneedle device” (priority 2013, dated 2017).

Assay: Blending effect of lysine hydrochloride on stability (L9 orthogonal table)
Assay type: physicochemical
Details: 2.5% or 5.0% lysine hydrochloride blended; 50° C., 2 weeks; least-squares analysis, FIG. 4
Description: A Japanese encephalitis vaccine antigen application solution comprising 70% by mass of a mixture of arginine and an acid, where the blending ratio of each component (unit: % by mass) and the molar ratio of arginine and the acid are shown in Table 7, was applied onto microneedles, and the blending effect of the lysine hydrochloride was evaluated using an L9 orthogonal table. In Table 7, the numerical values in parentheses for each component denote the blending ratios (unit: % by mass) after removal of the volatile component.
A PBS solution of a Japanese encephalitis vaccine antigen was used as a bulk drug, this bulk drug was concentrated by ultrafiltration, and a predetermined amount of an additive was added to the concentrate, followed by mixing to obtain an application solution for microneedles. […] After drying, the microneedles were sealed in MoistCatch (trade name, Kyodo Printing Co., Ltd.) together with PharmaKeep (trade name, Mitsubishi Gas Chemical Company, Inc.), and the stability under each temperature condition was evaluated. […] For the specific activity level of each sample preserved at 50° C. for 2 weeks, the degree of influence by blending of lysine hydrochloride on the specific activity was analyzed by a least-squares method. […]

## Cl.NCCCC[C@H](N)C(=O)O [lysine hydrochloride]
  degree of influence on the specific activity: high
